Experimental data as given in paper PMC9079959, “Substituted spirooxindole derivatives as potent anticancer agents through inhibition of phosphodiesterase 1” (RSC Advances, 2018).
Read-outs that look alike come from different tables or passages of the source.

Assays:
[1] = tested on: HCT-116 cells; test: MTT cytotoxicity assay, colorectal cancer cell line HCT-116; assay type: cell-based; settings: for SI (selectivity index): IC50 normal (VERO-B) / IC50 cancer (HCT-116)
Procedure: (§1) The cytotoxic activity of the compounds was tested against different mammalian cancer cells, prostate carcinoma cells (PC-3), hepatocellular carcinoma (HepG2) and colon cancer cells (HCT-116). African green monkey kidney cells (Vero-B) were used as normal cells to study the selectivity towards the cancer cells. The cell lines were obtained from the American Type Culture Collection (ATCC). The cells were cultivated at 37 °C and 10% CO2 in DMEM (Lonza, Germany) medium supplemented with 10% fetal bovine serum (Lonza, Germany), 100 IU ml^−1 penicillin and 100 μg ml^−1 streptomycin (Lonza, Germany). […] The spirooxindole derivatives were solubilized in DMSO and stored at −20 °C. The viability of the cells was quantified using 3-(4,5-dimethylthiazol-2-yl)-2,5-diphenyl tetrazolium bromide (MTT), which measures the activity of mitochondrial succinate dehydrogenase in viable cells.[45,46]
(§2) The cells were seeded in 96-well plates at a concentration of 5 × 10^4 cells per ml (100 μl per well). […] DMSO was used as a negative control (0.1%). The cells were incubated for 48 h. After that, 15 μl of MTT (5 mg ml^−1 in PBS) was added to each well and incubated for another 4 h. The formazan crystals were solubilized by 100 μl of acidified SDS solution (10% SDS/0.01 N HCl in PBS). The absorbance was measured after 14 h of incubation at 37 °C and under 5% CO2 at 570 nm by using a BioTek microplate reader. Each experiment was repeated 3 times and a standard deviation was calculated (SD±). […] The growth of the cells was monitored and the images were acquired by Gx microscopes (GXMGXD202 Inverted Microscope) at 10× magnification.

[2] = tested on: HepG2 cells; test: MTT cytotoxicity assay, hepatocellular carcinoma HepG2; assay type: cell-based; settings: for IC50: Homo sapiens, HepG2; for SI (selectivity index): IC50 normal (VERO-B) / IC50 cancer (HepG2)
Procedure: as §1, §2

[3] = tested on: PC-3 cells; test: MTT cytotoxicity assay, prostate cancer cell line PC-3; assay type: cell-based; settings: for SI (selectivity index): IC50 normal (VERO-B) / IC50 cancer (PC-3)
Procedure: as §1, §2

[4] = tested on: Vero-B cells; test: MTT cytotoxicity assay, normal cells Vero-B; assay type: cell-based, African green monkey; settings: 48 h
Procedure: as §1, §2

[5] = Homo sapiens, HCT-116, MTT, 48 h, ± SD of 3 experiments, read-out: HCT-116 (IC50)
[6] = Homo sapiens, HCT-116, MTT, 48 h, read-out: HCT-116 (IC50, μg ml^−1)
[7] = MTT, 48 h, ± SD of 3 experiments, read-out: HepG2 (IC50)
[8] = MTT, 48 h, read-out: HepG2 (IC50, μg ml^−1)
[9] = Homo sapiens, PC-3, MTT, 48 h, ± SD of 3 experiments, read-out: PC-3 (IC50)
[10] = Homo sapiens, PC-3, MTT, 48 h, read-out: PC-3 (IC50, μg ml^−1)

Compound	IC50 [1, 5] [µM]	IC50 [1, 6] [µg/mL]	SI (selectivity index) [1]	IC50 [2, 7] [µM]	IC50 [2, 8] [µg/mL]	SI (selectivity index) [2]	IC50 [3, 9] [µM]	IC50 [3, 10] [µg/mL]	SI (selectivity index) [3]	IC50 ([4]; Chlorocebus sabaeus, Vero B) [µM]	melting point [°C]	HCT-116 (IC50, μg ml^−1) ([1]; MTT, 48 h) [µg/mL]	IC50 ([1]; MTT, 48 h, ± SD of 3 experiments, read-out: HCT-116 (IC50)) [µM]	HepG2 (IC50, μg ml^−1) ([2]; MTT, 48 h) [µg/mL]	PC-3 (IC50, μg ml^−1) ([3]; MTT, 48 h) [µg/mL]	IC50 ([3]; MTT, 48 h, ± SD of 3 experiments, read-out: PC-3 (IC50)) [µM]	IC50 [4] [µM]
O=C(c1c[nH]c2ccccc12)[C@@H]1C(c2ccc(Cl)cc2)[C@@H]2CCCN2[C@@]12C(=O)Nc1ccccc12 (stereo partly drawn) [4c, (2′R,3S,7a′S)-1′-(4-Chlorophenyl)-2′-(1H-indole-3-carbonyl)-1′,2′,5′,6′,7′,7a′-hexahydrospiro[indoline-3,3′-pyrrolizin]-2-one]	20 ± 1.5	9.6	1.1	8 ± 0.5	3.8	2.8	11.8 ± 1.3	5.7	1.9	22	165 to 167	–	–	–	–	–	–
O=C(c1c[nH]c2ccccc12)[C@@H]1C(c2cccs2)[C@@H]2CCCN2[C@@]12C(=O)Nc1ccccc12 (stereo partly drawn) [4l, (2′R,3S,7a′S)-2′-(1H-Indole-3-carbonyl)-1′-(thiophen-2-yl)-1′,2′,5′,6′,7′,7a′-hexahydrospiro[indoline-3,3′-pyrrolizin]-2-one]	50 ± 3.5	22.7	1.2	50 ± 3	22.7	1.2	29 ± 3	13	2.1	60	157 to 159	–	–	–	–	–	–
O=C(c1c[nH]c2ccccc12)[C@@H]1[C@@H](c2ccc(C(F)(F)F)cc2)[C@@H]2CCCN2[C@]12C(=O)Nc1ccccc12 [4k]	9 ± 0.5	4.6	2.4	10 ± 1.25	5.2	2.2	9 ± 0.2	4.6	–	22	153 to 155	–	–	–	–	–	–
Cc1ccc(C2[C@@H](C(=O)c3c[nH]c4ccccc34)[C@]3(C(=O)Nc4ccccc43)N3CCC[C@@H]23)cc1 (stereo partly drawn) [4b, (2′R,3S,7a′S)-2′-(1H-Indole-3-carbonyl)-1′-(p-tolyl)-1′,2′,5′,6′,7′,7a′-hexahydrospiro[indoline-3,3′-pyrrolizin]-2-one]	21 ± 2	9.7	1.2	11.8 ± 2	5.4	2.2	16.3 ± 2	7.5	1.6	26	174 to 176	–	–	–	–	–	–
O=C(c1c[nH]c2ccccc12)[C@@H]1C(c2cccc(Br)c2)[C@@H]2CCCN2[C@@]12C(=O)Nc1ccccc12 (stereo partly drawn) [4j, (2′R,3S,7a′S)-1′-(3-Bromophenyl)-2′-(1H-indole-3-carbonyl)-1′,2′,5′,6′,7′,7a′-hexahydrospiro[indoline-3,3′-pyrrolizin]-2-one]	9 ± 0.5	4.7	2.2	8 ± 1	4.2	2.5	7 ± 0.2	3.7	–	20	110 to 112	–	–	–	–	–	–
O=C(c1c[nH]c2ccccc12)[C@@H]1C(c2ccc(Br)cc2)[C@@H]2CCCN2[C@@]12C(=O)Nc1ccccc12 (stereo partly drawn) [4f, (2′R,3S,7a′S)-1′-(4-Bromophenyl)-2′-(1H-indole-3-carbonyl)-1′,2′,5′,6′,7′,7a′-hexahydrospiro[indoline-3,3′-pyrrolizin]-2-one]	21 ± 1.3	11	1.4	12 ± 1.5	6.3	2.5	16.3 ± 2.5	8.6	1.8	30	101 to 102	–	–	–	–	–	–
N.N.[Cl][Pt][Cl] [Cisplatin, cis-diamineplatinum(II) dichloride, reference compound]	–	–	–	–	–	–	–	–	–	–	–	3.8	12.6 ± 0.4	1.7	1.5	5 ± 0.45	5
COc1ccc(C2[C@@H](C(=O)c3c[nH]c4ccccc34)[C@]3(C(=O)Nc4ccccc43)N3CCC[C@@H]23)cc1 (stereo partly drawn) [4e, (2′R,3S,7a′S)-2′-(1H-Indole-3-carbonyl)-1′-(4-methoxyphenyl)-1′,2′,5′,6′,7′,7a′-hexahydrospiro[indoline-3,3′-pyrrolizin]-2-one]	26 ± 2	12.4	1	17.3 ± 3	8.3	1.5	15.5 ± 2	7.4	1.7	26	122 to 124	–	–	–	–	–	–
Cc1cccc(C2[C@@H](C(=O)c3c[nH]c4ccccc34)[C@]3(C(=O)Nc4ccccc43)N3CCC[C@@H]23)c1 (stereo partly drawn) [4i, (2′R,3S,7a′S)-2′-(1H-Indole-3-carbonyl)-1′-(m-tolyl)-1′,2′,5′,6′,7′,7a′-hexahydrospiro[indoline-3,3′-pyrrolizin]-2-one]	7 ± 0.2	3.2	2.1	7 ± 0.4	3.2	2.1	7 ± 0.6	3.2	–	15	141 to 143	–	–	–	–	–	–
COc1cc(C2[C@@H](C(=O)c3c[nH]c4ccccc34)[C@]3(C(=O)Nc4ccccc43)N3CCC[C@@H]23)cc(OC)c1OC (stereo partly drawn) [4n, (2′R,3S,7a′S)-2′-(1H-Indole-3-carbonyl)-1′-(3,4,5-trimethoxyphenyl)-1′,2′,5′,6′,7′,7a′-hexahydrospiro[indoline-3,3′-pyrrolizin]-2-one]	20 ± 1.25	11.1	2	28 ± 2	15.7	1.4	17 ± 2	9.4	2.4	40	179 to 181	–	–	–	–	–	–
